# Results taken from patent US20150209315A1 (Cumberland Pharmaceuticals, priority 2009, published 2015).
# Tested on: post-operative adult patients
# Assay: Example 1: patient self-assessment of pain, VAS at rest
# Format: in vivo, human
# Experimental: Pain was measured by the patient's self-assessment using a Visual Analog Scale (VAS) from 0-10 with 0 being no pain and 10 being intense pain. This was measured both at rest and with movement. […] […] To account for the missing pain assessments, two missing value approaches as described in the statistical analysis plan were used to impute values. To determine the difference in overall pain at differing time-points, the area under the VAS pain curve during the first 24 hours, between 6 and 24 hours and between 12 and 24 hours were analyzed.
structure (smiles),measurement,setting,value
"CC(C)Cc1ccc(C(C)C(=O)O)cc1 (stereo not drawn) [Ibuprofen, 2-(4-isobutylphenyl) propionic acid]",VAS Score measured at Rest (median),"400 mg, EEP, 1-Hour",7.0
same,"VAS Score measured at Rest, % Reduction vs Placebo","400 mg, EEP, 1-Hour",0.0%
same,VAS Score measured at Rest (median),"400 mg, EEP, 2-Hour",6.1
same,"VAS Score measured at Rest, % Reduction vs Placebo","400 mg, EEP, 2-Hour",−3.4%
same,VAS Score measured at Rest (median),"400 mg, EEP, 3-Hour",5.0
same,"VAS Score measured at Rest, % Reduction vs Placebo","400 mg, EEP, 3-Hour",0.0%
same,VAS Score measured at Rest (median),"400 mg, EEP, 6-Hour",4.0
same,"VAS Score measured at Rest, % Reduction vs Placebo","400 mg, EEP, 6-Hour",0.0%
same,VAS Score measured at Rest (median),"400 mg, EEP, 9-Hour",3.0
same,VAS Score measured at Rest (median),"400 mg, EEP, 12-Hour",3.0
same,"VAS Score measured at Rest, % Reduction vs Placebo","400 mg, EEP, 12-Hour",0.0%
same,VAS Score measured at Rest (median),"400 mg, EEP, 15-Hour",2.0
same,"VAS Score measured at Rest, % Reduction vs Placebo","400 mg, EEP, 15-Hour",33.3%
same,VAS Score measured at Rest (median),"400 mg, EEP, 18-Hour",2.9
same,"VAS Score measured at Rest, % Reduction vs Placebo","400 mg, EEP, 18-Hour",3.3%
same,VAS Score measured at Rest (median),"400 mg, EEP, 21-Hour",2.9
same,"VAS Score measured at Rest, % Reduction vs Placebo","400 mg, EEP, 21-Hour",3.3%
same,VAS Score measured at Rest (median),"400 mg, EEP, 24-Hour",3.0
same,"VAS Score measured at Rest, % Reduction vs Placebo","400 mg, EEP, 24-Hour",0.0%
same,VAS Score measured at Rest (median),"400 mg, EEP, 27-Hour",3.0
same,"VAS Score measured at Rest, % Reduction vs Placebo","400 mg, EEP, 27-Hour",3.2%
same,VAS Score measured at Rest (median),"400 mg, EEP, 30-Hour",2.5
same,"VAS Score measured at Rest, % Reduction vs Placebo","400 mg, EEP, 30-Hour",10.7%
same,VAS Score measured at Rest (median),"400 mg, EEP, 33-Hour",2.7
same,"VAS Score measured at Rest, % Reduction vs Placebo","400 mg, EEP, 33-Hour",15.6%
same,VAS Score measured at Rest (median),"400 mg, EEP, 36-Hour",2.4
same,"VAS Score measured at Rest, % Reduction vs Placebo","400 mg, EEP, 36-Hour",7.7%
same,VAS Score measured at Rest (median),"400 mg, EEP, 39-Hour",2.1
same,"VAS Score measured at Rest, % Reduction vs Placebo","400 mg, EEP, 39-Hour",−16.7%
same,VAS Score measured at Rest (median),"400 mg, EEP, 42-Hour",2.1
same,"VAS Score measured at Rest, % Reduction vs Placebo","400 mg, EEP, 42-Hour",−5.0%
same,VAS Score measured at Rest (median),"400 mg, EEP, 45-Hour",2.4
same,"VAS Score measured at Rest, % Reduction vs Placebo","400 mg, EEP, 45-Hour",−14.3%
same,VAS Score measured at Rest (median),"400 mg, EEP, 48-Hour",1.6
same,"VAS Score measured at Rest, % Reduction vs Placebo","400 mg, EEP, 48-Hour",−6.7%
same,VAS Score measured at Rest (median),"400 mg, ITT, 1-Hour",7.0
same,"VAS Score measured at Rest, % Reduction vs Placebo","400 mg, ITT, 1-Hour",0.0%
same,VAS Score measured at Rest (median),"400 mg, ITT, 2-Hour",6.3
same,"VAS Score measured at Rest, % Reduction vs Placebo","400 mg, ITT, 2-Hour",−3.3%
same,VAS Score measured at Rest (median),"400 mg, ITT, 3-Hour",5.1
same,"VAS Score measured at Rest, % Reduction vs Placebo","400 mg, ITT, 3-Hour",−2.0%
same,VAS Score measured at Rest (median),"400 mg, ITT, 6-Hour",4.3
same,"VAS Score measured at Rest, % Reduction vs Placebo","400 mg, ITT, 6-Hour",−7.5%
same,VAS Score measured at Rest (median),"400 mg, ITT, 9-Hour",3.5
same,"VAS Score measured at Rest, % Reduction vs Placebo","400 mg, ITT, 9-Hour",12.5%
same,VAS Score measured at Rest (median),"400 mg, ITT, 12-Hour",3.1
same,"VAS Score measured at Rest, % Reduction vs Placebo","400 mg, ITT, 12-Hour",−3.3%
same,VAS Score measured at Rest (median),"400 mg, ITT, 15-Hour",2.6
same,"VAS Score measured at Rest, % Reduction vs Placebo","400 mg, ITT, 15-Hour",21.2%
same,VAS Score measured at Rest (median),"400 mg, ITT, 18-Hour",2.9
same,"VAS Score measured at Rest, % Reduction vs Placebo","400 mg, ITT, 18-Hour",3.3%
same,VAS Score measured at Rest (median),"400 mg, ITT, 21-Hour",2.8
same,"VAS Score measured at Rest, % Reduction vs Placebo","400 mg, ITT, 21-Hour",20.0%
same,VAS Score measured at Rest (median),"400 mg, ITT, 24-Hour",3.0
same,"VAS Score measured at Rest, % Reduction vs Placebo","400 mg, ITT, 24-Hour",0.0%
same,VAS Score measured at Rest (median),"400 mg, ITT, 27-Hour",3.1
same,"VAS Score measured at Rest, % Reduction vs Placebo","400 mg, ITT, 27-Hour",−3.3%
same,VAS Score measured at Rest (median),"400 mg, ITT, 30-Hour",2.4
same,"VAS Score measured at Rest, % Reduction vs Placebo","400 mg, ITT, 30-Hour",11.1%
same,VAS Score measured at Rest (median),"400 mg, ITT, 33-Hour",2.7
same,"VAS Score measured at Rest, % Reduction vs Placebo","400 mg, ITT, 33-Hour",15.6%
same,VAS Score measured at Rest (median),"400 mg, ITT, 36-Hour",2.3
same,"VAS Score measured at Rest, % Reduction vs Placebo","400 mg, ITT, 36-Hour",11.5%
same,VAS Score measured at Rest (median),"400 mg, ITT, 39-Hour",2.1
same,"VAS Score measured at Rest, % Reduction vs Placebo","400 mg, ITT, 39-Hour",−16.7%
same,VAS Score measured at Rest (median),"400 mg, ITT, 42-Hour",2.1
same,"VAS Score measured at Rest, % Reduction vs Placebo","400 mg, ITT, 42-Hour",−5.0%
same,VAS Score measured at Rest (median),"400 mg, ITT, 45-Hour",2.4
same,"VAS Score measured at Rest, % Reduction vs Placebo","400 mg, ITT, 45-Hour",−20.0%
same,VAS Score measured at Rest (median),"400 mg, ITT, 48-Hour",1.6
same,"VAS Score measured at Rest, % Reduction vs Placebo","400 mg, ITT, 48-Hour",−6.7%
same,VAS Score measured at Rest (median),"800 mg, EEP, 1-Hour",7.0
same,"VAS Score measured at Rest, % Reduction vs Placebo","800 mg, EEP, 1-Hour",0.0%
same,VAS Score measured at Rest (median),"800 mg, EEP, 2-Hour",6.0
same,"VAS Score measured at Rest, % Reduction vs Placebo","800 mg, EEP, 2-Hour",−1.7%
same,VAS Score measured at Rest (median),"800 mg, EEP, 3-Hour",5.0
same,"VAS Score measured at Rest, % Reduction vs Placebo","800 mg, EEP, 3-Hour",0.0%
same,VAS Score measured at Rest (median),"800 mg, EEP, 6-Hour",5.0
same,"VAS Score measured at Rest, % Reduction vs Placebo","800 mg, EEP, 6-Hour",−25.0%
same,VAS Score measured at Rest (median),"800 mg, EEP, 9-Hour",3.0
same,VAS Score measured at Rest (median),"800 mg, EEP, 12-Hour",3.0
same,"VAS Score measured at Rest, % Reduction vs Placebo","800 mg, EEP, 12-Hour",0.0%
same,VAS Score measured at Rest (median),"800 mg, EEP, 15-Hour",2.8
same,"VAS Score measured at Rest, % Reduction vs Placebo","800 mg, EEP, 15-Hour",6.7%
same,VAS Score measured at Rest (median),"800 mg, EEP, 18-Hour",2.0
same,"VAS Score measured at Rest, % Reduction vs Placebo","800 mg, EEP, 18-Hour",33.3%
same,VAS Score measured at Rest (median),"800 mg, EEP, 21-Hour",2.0
same,"VAS Score measured at Rest, % Reduction vs Placebo","800 mg, EEP, 21-Hour",33.3%
same,VAS Score measured at Rest (median),"800 mg, EEP, 24-Hour",2.0
same,"VAS Score measured at Rest, % Reduction vs Placebo","800 mg, EEP, 24-Hour",33.3%
same,VAS Score measured at Rest (median),"800 mg, EEP, 27-Hour",2.3
same,VAS Score measured at Rest (median),"800 mg, EEP, 30-Hour",2.4
same,"VAS Score measured at Rest, % Reduction vs Placebo","800 mg, EEP, 30-Hour",14.3%
same,VAS Score measured at Rest (median),"800 mg, EEP, 33-Hour",2.3
same,"VAS Score measured at Rest, % Reduction vs Placebo","800 mg, EEP, 33-Hour",28.1%
same,VAS Score measured at Rest (median),"800 mg, EEP, 36-Hour",2.2
same,"VAS Score measured at Rest, % Reduction vs Placebo","800 mg, EEP, 36-Hour",15.4%
same,VAS Score measured at Rest (median),"800 mg, EEP, 39-Hour",2.7
same,"VAS Score measured at Rest, % Reduction vs Placebo","800 mg, EEP, 39-Hour",−50.0%
same,VAS Score measured at Rest (median),"800 mg, EEP, 42-Hour",1.8
same,"VAS Score measured at Rest, % Reduction vs Placebo","800 mg, EEP, 42-Hour",10.0%
same,VAS Score measured at Rest (median),"800 mg, EEP, 45-Hour",2.0
same,"VAS Score measured at Rest, % Reduction vs Placebo","800 mg, EEP, 45-Hour",4.8%
same,VAS Score measured at Rest (median),"800 mg, EEP, 48-Hour",1.1
same,VAS Score measured at Rest (median),"800 mg, ITT, 1-Hour",7.0
same,"VAS Score measured at Rest, % Reduction vs Placebo","800 mg, ITT, 1-Hour",0.0%
same,VAS Score measured at Rest (median),"800 mg, ITT, 2-Hour",5.7
same,"VAS Score measured at Rest, % Reduction vs Placebo","800 mg, ITT, 2-Hour",6.6%
same,VAS Score measured at Rest (median),"800 mg, ITT, 3-Hour",5.0
same,"VAS Score measured at Rest, % Reduction vs Placebo","800 mg, ITT, 3-Hour",0.0%
same,VAS Score measured at Rest (median),"800 mg, ITT, 6-Hour",4.0
same,"VAS Score measured at Rest, % Reduction vs Placebo","800 mg, ITT, 6-Hour",0.0%
same,VAS Score measured at Rest (median),"800 mg, ITT, 9-Hour",3.0
same,VAS Score measured at Rest (median),"800 mg, ITT, 12-Hour",2.9
same,"VAS Score measured at Rest, % Reduction vs Placebo","800 mg, ITT, 12-Hour",3.3%
same,VAS Score measured at Rest (median),"800 mg, ITT, 15-Hour",2.6
same,"VAS Score measured at Rest, % Reduction vs Placebo","800 mg, ITT, 15-Hour",21.2%
same,VAS Score measured at Rest (median),"800 mg, ITT, 18-Hour",2.0
same,"VAS Score measured at Rest, % Reduction vs Placebo","800 mg, ITT, 18-Hour",33.3%
same,VAS Score measured at Rest (median),"800 mg, ITT, 21-Hour",2.0
same,"VAS Score measured at Rest, % Reduction vs Placebo","800 mg, ITT, 21-Hour",42.9%
same,VAS Score measured at Rest (median),"800 mg, ITT, 24-Hour",2.0
same,"VAS Score measured at Rest, % Reduction vs Placebo","800 mg, ITT, 24-Hour",33.3%
same,VAS Score measured at Rest (median),"800 mg, ITT, 27-Hour",2.2
same,VAS Score measured at Rest (median),"800 mg, ITT, 30-Hour",2.3
same,"VAS Score measured at Rest, % Reduction vs Placebo","800 mg, ITT, 30-Hour",14.8%
same,VAS Score measured at Rest (median),"800 mg, ITT, 33-Hour",2.3
same,"VAS Score measured at Rest, % Reduction vs Placebo","800 mg, ITT, 33-Hour",28.1%
same,VAS Score measured at Rest (median),"800 mg, ITT, 36-Hour",2.2
same,"VAS Score measured at Rest, % Reduction vs Placebo","800 mg, ITT, 36-Hour",15.4%
same,VAS Score measured at Rest (median),"800 mg, ITT, 39-Hour",2.7
same,"VAS Score measured at Rest, % Reduction vs Placebo","800 mg, ITT, 39-Hour",−50.0%
same,VAS Score measured at Rest (median),"800 mg, ITT, 42-Hour",1.9
same,"VAS Score measured at Rest, % Reduction vs Placebo","800 mg, ITT, 42-Hour",5.0%
same,VAS Score measured at Rest (median),"800 mg, ITT, 45-Hour",1.9
same,"VAS Score measured at Rest, % Reduction vs Placebo","800 mg, ITT, 45-Hour",5.0%
same,VAS Score measured at Rest (median),"800 mg, ITT, 48-Hour",1.3
same,"VAS Score measured at Rest, % Reduction vs Placebo","800 mg, ITT, 48-Hour",13.3%
